What all share (type): physicochemical
A short description of series [1]: Solubility of bilastine and mometasone furoate monohydrate in formulations with HPBCD 12.5 to 100 mg/mL at pH 4.3, 4.6, 4.9 (Example 3). Particulars: for solubility: thermodynamic from solid. The method, then:
(§1) HPLC measurements were conducted using a HPLC-HCLASS Chromatographic System with PDA or UV-VIS detector equipped with a Xbridge Shield RP18 3.5 μm […] Column. Mobile phases were ammonium bicarbonate (10 mM pH 9, FLUKA), acetonitrile (FISCHER) and methanol ([…]). Samples were submitted to Acrodisc 32 mm Sryinge Filters with 1.2 μm Supor Membrane, Batch: 18-1077 (PALL).
Six different formulations (with mometasone furoate monohydrate and the rest of excipients as defined in example 2) were prepared (see table below). The six formulations had amounts of HPBCD from 12.5 to 100 mg/mL. Then, in each of them an excessive amount of bilastine was added and the maximum solubility was tested. Furthermore, the percentage of the mometasone furoate dissolved was also tested. All the measurements were conducted at time 0.

Series [2] can be described thus: Solubility of bilastine in water. The settings on record: solubility depends on the pH.
Series [3] can be described thus: Solubility of bilastine and mometasone furoate monohydrate in Kolliphor RH40 formulations (Example 4). The method, then: To this end, aqueous formulations of Kolliphor RH40 at concentrations 0, 5, 15, 25 and 50 mg/mL and at pH values of 3.7, 4.0, 4.3 and 4.6 were prepared.
Additionally, 0.5 mg/mL of mometasone furoate monohydrate was added to each formulation. The influence of Kolliphor RH40 in bilastine solubility is represented in FIG. 3 in graphs A and B therein. It is shown that, at pH values above 4.3, Kolliphor RH40 at a concentration of 50 mg/mL is insufficient in solubilizing 8 mg/mL of Bilastine (FIG. 3 in graph A therein. In addition, at the concentration of 50 mg/mL and pH of 4.3, Kolliphor RH40 solubilizes more than 10% of the added mometasone furoate monohydrate (FIG. 3 in graph B therein.

Series [4] can be described thus: Solubility of bilastine with α-cyclodextrin (FIG. 2). The settings on record: aqueous composition with α-cyclodextrin, aqueous with cosolvent or surfactant or cyclodextrin; 5 wt. % α-cyclodextrine instead of HPBCD, pH 4.5, FIG. 2.
Series [5] is described as follows: Mometasone impurities under forced stability conditions, increasing HPBCD (Example 7). Particulars: pH 4.6, 50° C., 3 months. On the procedure: The percentage of Mometasone was calculated-using the following formula: […]
The percentage of Mometasone degradation products was calculated using the following formula: […]
To evaluate the influence that the cyclodextrin HPBCD had on the impurities of mometasone, formulations similar to the one described in example 1 (see table therein) were studied at pH 4.6 for increasing cyclodextrin concentrations of from 25 to 95 mg/mL. The formulations were submitted to forced stability conditions at 50° C. for a 3-month period. The results were obtained from HPLC measurements.

Series [6] can be described thus: Stability of formulation with Kolliphor RH40 in stability chambers (Example 5). The settings on record: Kolliphor RH40 50 mg/mL formulation. On the procedure: as §1
In the formulation of the present example, sorbitan monooleate acts as an antifoam agent. A batch manufactured according to the table above was prepared, packaged and placed in stability chambers wherein the conditions were 25° C./40% RH and 40° C./25% RH for the duration of 3 months.

Series [7] is described as follows: Stability of formulas with HPBCD in stability chambers (Example 6). The settings on record: HPBCD 25 mg/mL. The method, then: as §1
The three formulas (bilastine at a concentration of 2, 4 and 8 mg/mL) were placed in stability chambers wherein the conditions were 25° C./40% RH and 40° C./25% RH for the duration of 6 or 12 months.

Converted amounts (≈) assume the structure as drawn.

In the case of `CCOCCn1c(C2CCN(CCc3ccc(C(C)(C)C(=O)O)cc3)CC2)nc2ccccc21` [Bilastine, 2-[4-(2-{4-[1-(2-ethoxyethyl)-1H-benzimidazol-2-yl]-1-piperidinyl}ethyl)phenyl]-2-methylpropanoic acid], the solubility was ≥ 8000 µg/mL in series [1] (aqueous with cosolvent or surfactant or cyclodextrin); ~10000 µg/mL (≈ 21.6 mM) in series [1] (pH 4.6, aqueous with cosolvent or surfactant or cyclodextrin); < 8000 µg/mL in series [3] (aqueous with cosolvent or surfactant or cyclodextrin, thermodynamic from solid); < 1000 µg/mL in series [4]. Also, the solubility in water entry in series [2] was “slightly soluble”.
Consider `C[C@@H]1C[C@H]2[C@@H]3CCC4=CC(=O)C=C[C@]4(C)[C@@]3(Cl)[C@@H](O)C[C@]2(C)[C@@]1(OC(=O)c1ccco1)C(=O)CCl.O` [Mometasone Furoate monohydrate, Mometasone furoate monohydrate], for which the “solubility of mometasone furoate” value in series [1] (HPBCD 75 mg/ml (7.5 wt. %), FIG. 1 graph B) is on record as “around 4 mg/ml”. For the same molecule, the “Dissolved mometasone (%)” value in series [5] (HPBCD 25 mg/mL) was 0.7%; in series [5] (HPBCD 50 mg/mL), 3.0%; in series [5] (HPBCD 65 mg/mL), 5.2%; in series [5] (HPBCD 85 mg/mL), 7.2%; in series [5] (HPBCD 95 mg/mL), 10.5%. The “Mometasone impurities (%)” value in series [5] (HPBCD 25 mg/mL) is on record as 0.2%; in series [5] (HPBCD 50 mg/mL) it was 0.7%; in series [5] (HPBCD 65 mg/mL), 1.0%; in series [5] (HPBCD 85 mg/mL), 1.3%; in series [5] (HPBCD 95 mg/mL) it was 1.9%. The “added mometasone furoate monohydrate solubilized” value in series [3] (Kolliphor RH40 50 mg/mL, pH 4.3, 0.5 mg/mL added, FIG. 3 graph B) is recorded as “more than 10%”. Further, the “Total degradation products % w/w” value worked out at 0.31% w/w in series [6] (25° C./40% RH, 3 months); 0.33% w/w in series [6] (40° C./25% RH, 3 months); 0.15% w/w in series [6] (T0); 0.05% w/w in series [7] (formula Bilastine 2 mg/mL, 25° C. 40% RH 9 months); 0.05% w/w in series [7] (formula Bilastine 2 mg/mL, 25° C. 40% RH 12 months); 0.15% w/w in series [7] (formula Bilastine 2 mg/mL, 40° C. 25% RH 3 months). The “Total degradation products % w/w” value in series [7] (formula Bilastine 2 mg/mL, 40° C. 25% RH 6 months) came to 0.20% w/w; in series [7] (formula Bilastine 2 mg/mL, T0), 0.05% w/w; in series [7] (formula Bilastine 4 mg/mL, 25° C. 40% RH 9 months) it was 0.05% w/w; in series [7] (formula Bilastine 4 mg/mL, 25° C. 40% RH 12 months), 0.05% w/w; in series [7] (formula Bilastine 4 mg/mL, 40° C. 25% RH 3 months), 0.14% w/w; in series [7] (formula Bilastine 4 mg/mL, 40° C. 25% RH 6 months), 0.18% w/w. The “Total degradation products % w/w” value in series [7] (formula Bilastine 4 mg/mL, T0) stood at 0.05% w/w; in series [7] (formula Bilastine 8 mg/mL, 25° C. 40% RH 9 months), 0.05% w/w; in series [7] (formula Bilastine 8 mg/mL, 25° C. 40% RH 12 months) it was 0.05% w/w; in series [7] (formula Bilastine 8 mg/mL, 40° C. 25% RH 3 months), 0.14% w/w; in series [7] (formula Bilastine 8 mg/mL, 40° C. 25% RH 6 months) it was 0.17% w/w; in series [7] (formula Bilastine 8 mg/mL, T0) it was 0.05% w/w.

One may read the solubility as how much of the substance goes into solution per volume. Low values mean a poorly soluble substance, high ones a readily soluble substance.
